# Test results taken from paper PMC10854695, “Using Flavonoid Substitution Status to Predict Anticancer Effects in Human Melanoma Cancers: An In Vitro Study” (Cancers, 2024).
# Read-outs that look alike come from different tables or passages of the source.
# Legend:
# C32 melanoma cells [1] = test system: C32 melanoma cells
# Description: (§1) The NRU (neutral red uptake) was conducted as previously described by Szoka and co-workers, with some modifications [22]. Briefly, melanoma cells and fibroblasts were seeded in microplates at the density of 1 × 10^4 cells per well and allowed to adhere for 24 h. […] After treatment, the culture medium was replaced with a neutral red solution (40 µg/mL). An additional 2 h of incubation was performed. The neutral red solution was then removed and the neutral red accumulated in the cells was dissolved in 50% EtOH with 1% of the glacial acetic acid. The absorbance was estimated at 540 nm and IC50 values were calculated using GraphPad Prism software (GraphPad Software, San Diego, CA, USA).
# A375 melanoma cells [2] = test system: A375 melanoma cells
# A375 melanoma cells [3] = test system: A375 melanoma cells; remark: listed apart in the source
# [4] = test system: human skin fibroblasts (CCD25Sk)
# [5] = test system: human skin fibroblasts (CCD25Sk); remark: listed apart in the source
# C32 melanoma cells [6] = test system: C32 melanoma cells; remark: listed apart in the source
# C32 melanoma cells [7] = assay: Neutral red uptake (NRU) assay, C32; conditions: read-out: IC50, cytotoxic activity, NRU assay
# Description: as §1
# A375 melanoma cells [8] = assay: Neutral red uptake (NRU) assay, A375; conditions: read-out: IC50, cytotoxic activity, NRU assay
# [9] = test system: human skin fibroblasts (CCD25Sk); assay: Neutral red uptake (NRU) assay, normal cells; conditions: read-out: IC50, cytotoxic activity, NRU assay, Normal cells (fibroblasts)
# C32 melanoma cells [10] = assay: [3H]-thymidine incorporation (DNA biosynthesis), C32; assay type: cell-based, human; conditions: read-out: IC50, effect on DNA biosynthesis ([3H]-thymidine incorporation)
# Description: (§2) The inhibition of DNA biosynthesis was evaluated using [^3H]-thymidine incorporation into the DNA of melanoma cells (C32, A375) and fibroblasts treated with the studied compounds [21]. The cells were briefly seeded in 24-well plates (1 × 10^5 cells per well) and allowed to adhere for 24 h. […] After incubation for 24, 48, and 72 h, the cells were rinsed three times with PBS. Then, cells were lysed in 1 mL of 0.1 M NaOH containing 1% SDS. The cell lysate was moved into scintillation vials containing scintillation liquid, and the radioactivity of the samples was measured using a liquid scintillation analyzer (Perkin-Elmer, Waltham, MA, USA).
# [11] = test system: human skin fibroblasts (CCD25Sk); assay: [3H]-thymidine incorporation (DNA biosynthesis), normal cells; assay type: cell-based; conditions: Homo sapiens, Skin fibroblast, read-out: IC50, effect on DNA biosynthesis ([3H]-thymidine incorporation)
# Description: as §2
# A375 melanoma cells [12] = assay: MTT cell viability assay, A375; conditions: read-out: IC50, cytotoxic activity, MTT test;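 further: Read-out is formazan absorbance at 570 nm after 2 h with MTT, with compounds in at most 0.1% v/v DMSO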
# [13] = test system: cleaved caspase-3 and cleaved caspase-7 in C32 cells; assay: Immunofluorescence of cleaved caspase-3/-7, C32; assay type: cell-based, human; conditions: C32, 48 h, immunofluorescent staining
# Description: Firstly, to examine fluorescent signals, cells were placed in the bottom of 96-well black plates at 1 × 10^4 cells per well and permitted to adhere for 24 h. […] After incubating and removing the medium, cells were fixed in 4% paraformaldehyde for 15 min. Later, cells were rinsed three times with PBS and permeabilized with 0.1% Triton X-100 for 5 min at room temperature. The 10% heat-inactivated goat serum in the PBS was used to block non-specific binding. Subsequently, cells were treated with the following antibodies overnight: anti-cleaved caspase 3 and anti-cleaved caspase-7. […] Cell nuclei were stained with Hoechst 33342 and F-actin was stained with Phalloidin-Atto 488. Fluorescent signals were captured using a BD Pathway 855 confocal microscope (Becton Dickinson, Franklin Lakes, NJ, USA). The mean fluorescence intensity was calculated using ImageJ software (National Institutes of Health, Bethesda, Rockville, MD, USA).
# [14] = test system: caspases, PARP, phospho-RSK in A375 cells; assay: Western immunoblot of apoptosis mediators and RSK, A375; assay type: cell-based, human; conditions: A375, 48 h, Western blot
# [15] = MTT cell viability assay, normal cells; conditions: human;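 further: fibroblasts served as non-cancer comparison line for selectivity versus melanoma cells, MTT reduction read as absorbance at 570 nm after 2 h dye exposure, compounds in ≤0.1% DMSO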
# [16] = Neutral red uptake (NRU) assay, normal cells; conditions: human
# A375 melanoma cells [17] = assay: [3H]-thymidine incorporation (DNA biosynthesis), A375; assay type: cell-based, human; conditions: read-out: IC50, effect on DNA biosynthesis ([3H]-thymidine incorporation)
# Description: as §2
# A375 melanoma cells [18] = assay: Apoptosis assay, annexin V/PI flow cytometry, A375; assay type: cell-based, human; conditions: A375, 50 µM, 48 h
# Description: Firstly, cells were placed in 6-well plates at a density of 1 × 10^5 cells per well and allowed to adhere for 24 h. Then, cells were treated with 25 µM, 50 µM, and 100 μM of the selected flavonoids (1, 6, 15, 16, 17, 37) and incubated for 48 h. Floating and adherent cells were collected and assayed using the manufacturer’s protocol supported by the Dead Cell Apoptosis Kit for flow cytometry. Concisely, 100 μL of an annexin-binding buffer containing a 5 μL annexin V-FITC conjugate solution and 1 μg/mL PI (propidium iodide) was used to disperse the cells. After 15 min of incubation, an additional 400 μL of the mentioned buffer was added. The cells were analyzed with a DxFLEX flow cytometer (Beckman Coulter, Brea, CA, USA).
# [19] = test system: caspases, PARP, phospho-RSK in C32 cells; assay: Western immunoblot of apoptosis mediators and RSK, C32; assay type: cell-based, human; conditions: C32, 48 h, Western blot
# Description: Floating cells were harvested by centrifugation of the conditioned media (300× g, 5 min). Cell pellet and adherent cells were lysed in a cell lysis buffer supplemented with inhibitors of proteases and phosphatases. The cell lysate was sonicated (2 × 10 s) on ice with an ultrasonic homogenizer (UP200S, Hielscher Ultrasonics GmbH, Teltow, Germany) and centrifuged for 10 min at 10,000× g. The supernatant was collected and stored in a freezer at −70 °C. Protein concentrations in the cell supernatants were determined using a Lowry assay. Obtained proteins were dissolved on SDS-PAGE gels (7.5%, 10%, or 12%) using the Mini-Protean Tetra system. The proteins were transferred to nitrocellulose membranes using the Mini Trans-Blot Cell wet blotting system. The 5% skim milk was used to block membranes. Then, membranes were probed for 24 h at 4 °C with the following antibodies: anti-phospho-RSK, anti-RSK, anti-PARP, anti-cleaved PARP, anti-caspase-8, anti-caspase-9, anti-caspase-7, anti-caspase-3, and anti-actin. Membranes were incubated with an ECL-HRP (enhanced chemiluminescence-horseradish peroxidase) substrate, and the signal was spotted using the BioSpectrum Imaging System and VisionWorks LS software 7.0 (Ultra-Violet Products, Ltd., San Gabriel, CA, USA). The intensity of the bands was quantified by densitometric analysis using UVIBand software, version 15.08d (Uvitec Ltd., Cambridge, UK).
# C32 melanoma cells [20] = assay: MTT cell viability assay, C32; conditions: read-out: IC50, cytotoxic activity, MTT test;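 further: MTT added for 2 h, cells lysed in DMSO, absorbance read at 570 nm, compound vehicle kept at or below 0.1% DMSO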
# [21] = test system: human skin fibroblasts (CCD25Sk); assay: MTT cell viability assay, normal cells; conditions: read-out: IC50, cytotoxic activity, MTT test, Normal cells (fibroblasts);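 further: fibroblasts served as non-cancer comparison line for selectivity versus melanoma cells, MTT reduction read as absorbance at 570 nm after 2 h dye exposure, compounds in ≤0.1% DMSO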
compound,measurement,setting,value
"O=c1cc(-c2ccc(O)c(O)c2)oc2cc(OC3OC(CO)C(O)C(O)C3OC3OCC(O)C(O)C3O)cc(O)c12 (stereo not drawn) [Compound 9, luteolin 7-O-sambubioside]",IC50,C32 melanoma cells [1],> 200 µM
same,IC50,A375 melanoma cells [2],> 200 µM
same,IC50,A375 melanoma cells [3],> 200 µM
same,IC50,[4],> 200 µM
same,IC50,[5],> 200 µM
same,IC50,C32 melanoma cells [6],> 200 µM
"CC(=O)Oc1ccc(-c2cc(=O)c3c(O)cc(O)c([C@@H]4OC[C@@H](O)[C@H](O)[C@H]4O[C@@H]4O[C@H](CO)[C@@H](O)[C@H](O)[C@H]4O)c3o2)cc1O [Compound 10, 5,7,3′-trihydroxy-4′-acetoxy-flavone-8-C-xyloside-2″-O-glucoside]",IC50,"C32 melanoma cells [7]; C32, 24 h",> 200 µM
same,IC50,"C32 melanoma cells [7]; C32, 48 h",> 200 µM
same,IC50,"C32 melanoma cells [7]; C32, 72 h",> 200 µM
same,IC50,A375 melanoma cells [3],> 200 µM
same,IC50,"A375 melanoma cells [8]; A375, 24 h",> 200 µM
same,IC50,"A375 melanoma cells [8]; A375, 48 h",> 200 µM
same,IC50,"A375 melanoma cells [8]; A375, 72 h",> 200 µM
same,IC50,[9]; 24 h,> 200 µM
same,IC50,[9]; 48 h,> 200 µM
same,IC50,[9]; 72 h,> 200 µM
same,IC50,[4],> 200 µM
same,IC50,C32 melanoma cells [6],> 200 µM
"COc1ccc(-c2cc(=O)c3c(O)cc(O)c([C@@H]4OC[C@@H](O)[C@H](O)[C@H]4O[C@@H]4O[C@H](CO)[C@@H](O)[C@H](O)[C@H]4O)c3o2)cc1O [Compound 11, 5,7,3′-trihydroxy-4′-methoxyflavone-8-C-xyloside-2″-O-glucoside]",IC50,"C32 melanoma cells [7]; C32, 24 h",> 200 µM
same,IC50,"C32 melanoma cells [7]; C32, 48 h",> 200 µM
same,IC50,"C32 melanoma cells [7]; C32, 72 h",> 200 µM
same,IC50,A375 melanoma cells [3],> 200 µM
same,IC50,"A375 melanoma cells [8]; A375, 24 h",> 200 µM
same,IC50,"A375 melanoma cells [8]; A375, 48 h",> 200 µM
same,IC50,"A375 melanoma cells [8]; A375, 72 h",> 200 µM
same,IC50,[9]; 24 h,> 200 µM
same,IC50,[9]; 48 h,> 200 µM
same,IC50,[9]; 72 h,> 200 µM
same,IC50,[4],> 200 µM
same,IC50,C32 melanoma cells [6],> 200 µM
"COc1cc(-c2cc(=O)c3c(O)cc(O)c([C@@H]4OC[C@@H](O)[C@H](O)[C@H]4O[C@@H]4O[C@H](CO)[C@@H](OC(C)=O)[C@H](O)[C@H]4O)c3o2)ccc1OC(C)=O [Compound 12, 5,7-dihydroxy-3′-methoxy-4′-acetoxyflavone-8-C-xyloside-2″-O-(4‴-acetoxy)-glucoside]",IC50,C32 melanoma cells [1],> 200 µM
same,IC50,A375 melanoma cells [2],> 200 µM
same,IC50,A375 melanoma cells [3],> 200 µM
same,IC50,[4],> 200 µM
same,IC50,[5],> 200 µM
same,IC50,C32 melanoma cells [6],> 200 µM
"COc1cc(-c2cc(=O)c3c(O)cc(O)c(C4OCC(O)C(O)C4OC4OC(CO)C(OC(C)=O)C(O)C4O)c3o2)ccc1OC(C)=O (stereo not drawn) [Compound 13, 5,7-dihydroxy-3′-methoxy-4′-acetoxyflavone-8-C-arabinoside-2″-O-(4‴-acetoxy)-glucoside]",IC50,C32 melanoma cells [1],> 200 µM
same,IC50,A375 melanoma cells [2],> 200 µM
same,IC50,A375 melanoma cells [3],> 200 µM
same,IC50,[4],> 200 µM
same,IC50,[5],> 200 µM
same,IC50,C32 melanoma cells [6],> 200 µM
"O=c1c(-c2ccc(O)cc2)coc2cc(O)cc(O)c12 [Compound 37, genistein]",IC50,"C32 melanoma cells [10]; C32, 48 h",18.5 ± 0.7 µM
same,IC50,"C32 melanoma cells [10]; Homo sapiens, C32, C32, 24 h",25.4 ± 1.3 µM
same,IC50,"C32 melanoma cells [10]; Homo sapiens, C32, C32, 48 h",18.5 ± 0.21 µM
same,IC50,"C32 melanoma cells [10]; Homo sapiens, C32, C32, 72 h",19.1 ± 0.3 µM
same,IC50,"C32 melanoma cells [7]; Homo sapiens, C32, 24 h",100 to 200 µM
same,IC50,"C32 melanoma cells [7]; Homo sapiens, C32, 48 h",31.5 ± 2.8 µM
same,IC50,"C32 melanoma cells [7]; Homo sapiens, C32, 72 h",14.4 ± 2.1 µM
same,IC50,[11]; 24 h,> 200 µM
same,IC50,[11]; 48 h,> 200 µM
same,IC50,[11]; 72 h,> 200 µM
same,IC50,"A375 melanoma cells [12]; Homo sapiens, A-375, 24 h",93.1 ± 5.8 µM
same,IC50,"A375 melanoma cells [12]; Homo sapiens, A-375, 48 h",60.9 ± 4.2 µM
same,caspase-3 expression,[13],notably extended
same,IC50,"A375 melanoma cells [8]; Homo sapiens, A-375, 24 h",49.2 ± 3.2 µM
same,IC50,"A375 melanoma cells [8]; Homo sapiens, A-375, 48 h",32.3 ± 3.5 µM
same,IC50,"A375 melanoma cells [8]; Homo sapiens, A-375, 72 h",19.3 ± 2.2 µM
same,"cleavage of initiator caspases, caspase-9 and caspase-8",[14],cleavage of both initiator caspases
same,levels of the caspases-3 and -7 zymogens,[14],decreased levels
same,phosphorylation of the RSK protein,[14],impaired
same,IC50 at 24 h,[15],> 200 µM
same,IC50 at 48 h,[15],100 to 200 µM
same,IC50 at 72 h,[15],56.8 ± 4.1 µM
same,IC50 at 24 h,[16],> 200 µM
same,IC50 at 48 h,[16],57.8 ± 4 µM
same,IC50 at 72 h,[16],38.6 ± 3.7 µM
same,IC50,"A375 melanoma cells [17]; A375, 48 h",28 ± 0.8 µM
same,IC50,"A375 melanoma cells [17]; Homo sapiens, A-375, A375, 24 h",154 ± 10.8 µM
same,IC50,"A375 melanoma cells [17]; Homo sapiens, A-375, A375, 48 h",28.1 ± 0.87 µM
same,IC50,"A375 melanoma cells [17]; Homo sapiens, A-375, A375, 72 h",24.2 ± 1.5 µM
same,level of early apoptotic cells,A375 melanoma cells [18],38.1 ± 4.2%
same,level of late apoptotic cells,A375 melanoma cells [18],8.9 ± 1.9%
same,cleaved PARP and caspase-9,[19],generated cleaved PARP and caspase-9
same,phosphorylation of RSK,[19],inhibited
same,IC50,"C32 melanoma cells [20]; Homo sapiens, C32, 24 h",> 200 µM
same,IC50,"C32 melanoma cells [20]; Homo sapiens, C32, 48 h",> 200 µM
same,IC50,"C32 melanoma cells [20]; Homo sapiens, C32, 72 h",51.1 ± 3.5 µM
kaempferol 3-O-galactoside [Compound 22],IC50,"C32 melanoma cells [7]; C32, 24 h",> 200 µM
same,IC50,"C32 melanoma cells [7]; C32, 48 h",> 200 µM
same,IC50,"C32 melanoma cells [7]; C32, 72 h",> 200 µM
same,IC50,"A375 melanoma cells [12]; A375, 24 h",> 200 µM
same,IC50,"A375 melanoma cells [12]; A375, 48 h",> 200 µM
same,IC50,"A375 melanoma cells [12]; A375, 72 h",> 200 µM
same,IC50,"A375 melanoma cells [8]; A375, 24 h",> 200 µM
same,IC50,"A375 melanoma cells [8]; A375, 48 h",> 200 µM
same,IC50,"A375 melanoma cells [8]; A375, 72 h",> 200 µM
same,IC50,[21]; 24 h,> 200 µM
same,IC50,[21]; 48 h,> 200 µM
same,IC50,[21]; 72 h,> 200 µM
same,IC50,[9]; 24 h,> 200 µM
same,IC50,[9]; 48 h,> 200 µM
same,IC50,[9]; 72 h,> 200 µM
same,IC50,"C32 melanoma cells [20]; C32, 24 h",> 200 µM
same,IC50,"C32 melanoma cells [20]; C32, 48 h",> 200 µM
same,IC50,"C32 melanoma cells [20]; C32, 72 h",> 200 µM
